SMILES strings stand for the structures.

For one assay, the system named is C57BL/6 mice. As to the kind of experiment: Ethanol-induced working memory deficit (win-shift). In kind it is in vivo. The following applies: Ethanol 0.5 gm/kg i.p. ten minutes prior to testing. The method, then: Six month old male C57BL/6 mice were evaluated in the win-shift model in combination with treatment with ethanol, a non-specific memory suppressant, and AIT-082. Subjects were treated with saline (control) or AIT-082 (30 mg/kg. i.p.) 1 hour prior to testing. Ethanol was administered at a dose of 0.5 gm/kg i.p. ten minutes prior to testing.

Assay [1] has as its system cGMP levels in PC12 cells. The assay can be described thus: cGMP levels in PC12 cells (radioimmunoassay). The following applies: NGF-primed PC12 cells. In kind it is cell-based, rat. The procedure:
Initially, PC-12 cells were primed with 40 ng/ml NGF for 3 days in low serum medium (1.5% horse serum+5% fetal calf serum). Cells were seeded onto assay plates in low serum medium containing 40 ng/ml NGF and incubated for 1 hour. The medium was changed to low arginine medium (80 μM) with no serum and NGF and papaverine ([…]) where indicated. Test compounds were added for the indicated time and the reaction was stopped by adding 5% TCA containing 10,000 dpm of ^3H-cGMP. cGMP was assayed by the radioimmunoassay method of Maurice (Mol. Pharmacol. 37: 671-681, 1990). TCA was purified by adding powdered charcoal (5 g) and filtering the mixture through Whatman #1 paper. This removed contaminants in the TCA that otherwise interfere with the radioimmunoassay (RIA) of cGMP.
It was necessary to purify the cGMP from cAMP and other contaminants before radioimmunoassay since these other materials can interfere with the assay. Briefly, the TCA solution was applied to Dowex columns (50W-8X, 200-400 mesh) and eluted. A neutral alumina column was then placed under each Dowex column. The cGMP was eluted from the Dowex columns into neutral alumina columns by adding 4 mL of 0.05 M HCl to each Dowex column. The neutral alumina columns were then sequentially rinsed with 2 ml of HCl, 4 mL water and finally with 0.2 M sodium acetate (pH 6.2). The cGMP collected for the RIA eluted in 1 ML of sodium acetate with a recovery between 50-65%. The cGMP was assayed using a Dupont RIA kit.

Assay [2] deals with rat cultured astrocytes. The assay can be described thus: Release of radioactively labeled adenine-based purines from rat cultured astrocytes. In kind it is cell-based. To be noted: 300 μM, 1 hour. The procedure:
The experiments were carried out on cultured astrocytes of rat hippocampus at the fourth day in vitro (DIV), obtained from primary cultures replated in 35 mm Petri dishes ([…] cells/dish) and preloaded with [^3H]-adenosine (5×10^−8 M for a specific activity of 20.0 Ci/mM) for 30 minutes at 37° C.
The effect of AIT-082 on the proportional release of radioactively labeled adenine nucleosides and nucleotides from rat cultured astrocytes is shown in FIGS. 29A and 29B. Culture medium collected during the first hour of the release was analyzed by high performance liquid chromatography (HPLC) and the radioactivity associated with the different adenine compounds was measured and expressed as a percentage of the total radioactivity released. The results are shown for ATP, ADP, and AMP in FIG. 29A, and for adenosine, inosine, and hypoxanthine in FIG. 29B.

The subject of the next assay is neocortical astrocytes. As to the kind of experiment: NGF-like immunoreactivity in astrocyte culture medium (ELISA). In kind it is cell-based, mouse. The following applies: astrocytes incubated with different concentrations. The method, then:
Astrocytes appear to proliferate in response to extracellular guanosine or guanosine triphosphate (GTP). GTP or guanosine may also stimulate the release of trophic factors from cultures of neocortical astrocytes from neonatal mouse brains. Astrocytes were incubated with different concentrations of guanosine or GTP respectively. Neurotrophin imunoreactivity in the culture medium from treated cells was then measured by ELISA.
Briefly, 96 well Falcon plates (Fisher) were coated with […] of sheep mono-specific anti-NGF IgG (affinity column purified) contained in 0.1M sodium carbonate buffer pH 9.6. After an overnight incubation at 4° C. blocking solution (PBS with 10% goat serum) was added to remove excess antibody. After a four hour incubation at room temperature the plates were washed three times with PBS containing 0.05% Tween 20. The conditioned media and standard 2.5S HPLC purified NGF were added and incubated overnight. The next day plates were washed 3 times with PBS-0.05% Tween 20. The secondary antibody, rabbit mono-specific anti-NGF IgG conjugated with β-galactosidase (Pierce-SPDP method) (1:500 dilution) was added. The plates were incubated overnight at 4° C. The next day the plates were washed 3 times with PBS-0.05% Tween 20. […]
The ELISA assay detected neurotrophins NGF and NT-3 with ahnost equal affinity and BDNF with 100 times less affinity. […]
(In general: In an ELISA, binding on a coated surface is turned into a signal by an enzyme label.)

For assay [3], the system named is rat cultured astrocytes. The assay can be described thus: Release of radioactively labeled adenine-based purines from rat cultured astrocytes. The following applies: 300 μM. In kind it is cell-based.
Another assay concerns PC12 cells. As to the kind of experiment: Neuritogenesis in PC12 cells. In kind it is cell-based, rat. The method, then:
Much of the work performed in the characterization of the compounds of the present invention involved the use of PC12 cells. These cells are derived from a rat pheochromocytoma and when grown in the presence of NGF, extend neurites, cease cell division and assume many characteristics of sympathetic neurons. When cultured in the absence of nerve growth factor (NGF), few PC12 cells have neurites greater than one cell diameter. Addition of saturating concentrations of NGF for 48 hours stimulates neurite outgrowth in about 20-35% of the cells. Because they constitute a homogeneous population of neuronal-like cells, without contaminating astroglia type cells, it is possible to study the direct effects of the purine based compounds on neurite outgrowth in these cells.
Cells cultured in RPMI 1640 with 1.5% horse serum and 1.5% fetal bovine serum were re-plated onto poly-ornithine coated 24-well culture plates (2.5×10^4 cells per well). AIT-082 and NGF were added to the various cultures immediately upon plating. After 48 hours, medium was removed and the cells irnmediately fixed in 10% formalin and PBS for 10 minutes. Cells and neurites were counted within 2 days of fixation.
A neurite was defined as a process extending from the cell at least 1 cell body diameter in length and displaying a growth cone at its tip. For each treatment, 2 representative microscope fields were counted from each of 6 sister cultures receiving identical treatments. The total number of cells counted per well (approximately 100 cells) and the total number of cells containing neurites in each well were used to determine fraction of neurite-bearing cells. The mean values (±SEM) were then determined for each of the treatments. To facilitate comparison neurite outgrowth was expressed relative to the proportion of cells bearing neurites in the presence of NGF alone (NGF=100%). The effects of compounds with and without NGF were compared by analysis of variance (ANOVA) followed by Tukey's test for significance.
The results are shown in FIG. 3 where the curve represents different levels of AIT-082 plus saturating concentrations (40 ng/ml) NGF. The center horizontal line represents control values for cells cultured in the presence of 40 ng/ml NGF alone. Upper and lower horizontal lines are indicative of confidence limits of NGF alone as determined using standard statistical methods.

In the next assay the test system is mice. As to the kind of experiment: T-maze memory test with atropine co-administration. In kind it is in vivo. To be noted: AIT-082 30 mg/kg i.p. 2 hr prior; atropine 0.5 mg/kg i.p. 1/2 hour prior to testing, day 3. The procedure:
To elucidate the mechanisms by which AIT-082 improves memory, attempts were made to block its actions by co-administration of the short-acting cholinergic antagonist atropine to mice and subjecting them to simple learning tests. Atropine reportedly has the ability to block the effects of physostigmine and THA. Mice were injected with AIT-082 (30 mg/kg) 2 hr prior to testing on days 1 through 4. Atropine (0.5 mg/kg) was injected ½ hour prior to testing or 1.5 hours after AIT-082 on day 3 only. All injections were i.p. After a reference run to determine where the reward was placed in a T-maze, the mice were retested to determine if they could remember the location of the reward. The percentage of correct responses is graphically represented in FIG. 2.

For the molecule `CCO` [Ethanol, ethanol, reference compound], the “Correct trials (mean number of correct responses per 10 trials ± S.E.)” value in the assay with C57BL/6 mice was found to be 6.5 ± 26.

As to `Nc1nc2c(ncn2[C@@H]2O[C@H](COP(=O)(O)OP(=O)(O)OP(=O)(O)O)[C@@H](O)[C@H]2O)c(=O)[nH]1` [GTP, guanosine triphosphate, reference compound], the “cGMP in PC12 cells” value in assay [1] is on record as “did not increase levels of cGMP”. For the same molecule, in the assay with rat cultured astrocytes [2], the “ADP, proportional release” value is “(17.8 ± 2.6) percentage of the total [^3H]-purines released”; the “Adenosine, proportional release” value was “(4.0 ± 0.5) percentage of the total [^3H]-purines released”; the “Inosine, proportional release” value is “(14.0 ± 1.7) percentage of the total [^3H]-purines released”. In addition, in the assay on neocortical astrocytes, the “NGF-like immunoreactivity in the culture medium” value is on record as “increased the amount of NGF-like immunoreactivity”. In the assay with rat cultured astrocytes [3] (1 hour), the “ADP, radioactivity released in the culture medium” value was 2.10 ± 0.31 cpm × 10^3; the “AMP, proportional release” value was “(23.5 ± 2.4) percentage of the total [^3H]-purines released”; the “AMP, radioactivity released in the culture medium” value worked out at 2.76 ± 0.28 cpm × 10^3; the “ATP, proportional release” value is “(10.9 ± 1.1) percentage of the total [^3H]-purines released”. In addition, in the assay with rat cultured astrocytes [3] (1 hour), the “ATP, radioactivity released in the culture medium” value is listed as 1.28 ± 0.13 cpm × 10^3; the “Adenosine, radioactivity released in the culture medium” value stood at 0.47 ± 0.06 cpm × 10^3; the “Hypoxanthine, proportional release” value was “(18.4 ± 2.6) percentage of the total [^3H]-purines released”; the “Hypoxanthine, radioactivity released in the culture medium” value is listed as 2.20 ± 0.31 cpm × 10^3. Also, the “Inosine, radioactivity released in the culture medium” value in the assay with rat cultured astrocytes [3] (1 hour) was found to be 1.65 ± 0.2 cpm × 10^3. In the assay with rat cultured astrocytes [3] (3 hours), the “ADP, proportional release” value was “(8.6 ± 0.7) percentage of the total [^3H]-purines released”; the “ADP, radioactivity released in the culture medium” value stood at 1.05 ± 0.09 cpm × 10^3; the “AMP, proportional release” value is “(40.0 ± 3.9) percentage of the total [^3H]-purines released”; the “AMP, radioactivity released in the culture medium” value came to 4.32 ± 0.48 cpm × 10^3. In the assay with rat cultured astrocytes [3] (3 hours), the “ATP, proportional release” value was “(4.4 ± 0.4) percentage of the total [^3H]-purines released”; the “ATP, radioactivity released in the culture medium” value was determined as 0.54 ± 0.05 cpm × 10^3; the “Adenosine, proportional release” value is “(2.5 ± 0.2) percentage of the total [^3H]-purines released”; the “Adenosine, radioactivity released in the culture medium” value turned out to be 0.31 ± 0.02 cpm × 10^3. Also, in the assay with rat cultured astrocytes [3] (3 hours), the “Hypoxanthine, proportional release” value is “(25.0 ± 3.7) percentage of the total [^3H]-purines released”; the “Hypoxanthine, radioactivity released in the culture medium” value is on record as 3.11 ± 0.45 cpm × 10^3; the “Inosine, proportional release” value is “(9.7 ± 1.2) percentage of the total [^3H]-purines released”; the “Inosine, radioactivity released in the culture medium” value is on record as 1.19 ± 0.19 cpm × 10^3. The “neurite outgrowth in the absence of NGF” value in the assay on PC12 cells (compound alone) is on record as “elicited neurite outgrowth on its own”. The “enhancement of NGF-induced neurite outgrowth” value with PC12 cells (in the presence of NGF, 48 hours) was “did enhance neuritogenesis in the presence of NGF”.

In the case of `CN1[C@@H]2CC[C@H]1C[C@@H](OC(=O)C(CO)c1ccccc1)C2` (stereo partly drawn) [atropine], the “effect of atropine on memory enhancement by AIT-082” value in the assay with mice is recorded as “blocked the memory enhancing activity of AIT-082”.

(Values after patent publication US6338963B1, “Use of carbon monoxide dependent guanylyl cyclase modifiers to stimulate neuritogenesis” (NeoTherapeutics, Inc., priority 1994, dated 2002).)
